# Experiments:
# Conditions in all cases: treatment: drug + dasatinib (fixed dose, not stated); 5 days
# 769-P [1] = experiment: GI50 of drug in presence of dasatinib; higher = less potent
# Description: (§1)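 Primary HTS combination arm: 8 RCC cell lines treated with 8 doses (up to 10 uM) of each library drug plus a fixed dose of dasatinib (dose not stated) for 5 days; viability read by CellTiter-Glo and normalised to DMSO. GI50 was fitted with XLfit, AUC is the area under the dose-response curve, and minimum viability is the lowest fraction of DMSO viability across doses.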
# 786-O [2] = experiment: as above
# Description: as §1
# A498 [3] = experiment: as above
# Description: as §1
# ACHN [4] = experiment: as above
# Description: as §1
# CAKI-1 [5] = experiment: as above
# Description: as §1
# SN12C [6] = experiment: as above
# Description: as §1
# TK-10 [7] = experiment: as above
# Description: as §1
# UO-31 [8] = experiment: as above
# Description: as §1
# 769-P [9] = experiment: minimum viability across doses, drug + dasatinib, relative to DMSO (fraction); higher = less growth inhibition
# Description: as §1
# 786-O [10] = experiment: as above
# Description: as §1
# A498 [11] = experiment: as above
# Description: as §1
# ACHN [12] = experiment: as above
# Description: as §1
# CAKI-1 [13] = experiment: as above
# Description: as §1
# SN12C [14] = experiment: as above
# Description: as §1
# TK-10 [15] = experiment: as above
# Description: as §1
# UO-31 [16] = experiment: as above
# Description: as §1
# 769-P [17] = experiment: AUC of dose-response viability curve, drug + dasatinib, normalised to DMSO (arbitrary (AUC of normalised viability)); higher = less growth inhibition
# Description: as §1
# 786-O [18] = experiment: as above
# Description: as §1
# A498 [19] = experiment: as above
# Description: as §1
# ACHN [20] = experiment: as above
# Description: as §1
# CAKI-1 [21] = experiment: as above
# Description: as §1
# SN12C [22] = experiment: as above
# Description: as §1
# TK-10 [23] = experiment: as above
# Description: as §1
# UO-31 [24] = experiment: as above
# Description: as §1
SMILES,GI50 of drug (769-P [1]) [µM],GI50 of drug (786-O [2]) [µM],GI50 of drug (A498 [3]) [µM],GI50 of drug (ACHN [4]) [µM],GI50 of drug (CAKI-1 [5]) [µM],GI50 of drug (SN12C [6]) [µM],GI50 of drug (TK-10 [7]) [µM],GI50 of drug (UO-31 [8]) [µM],minimum viability across doses (769-P [9]),minimum viability across doses (786-O [10]),minimum viability across doses (A498 [11]),minimum viability across doses (ACHN [12]),minimum viability across doses (CAKI-1 [13]),minimum viability across doses (SN12C [14]),minimum viability across doses (TK-10 [15]),minimum viability across doses (UO-31 [16]),AUC of dose-response viability curve (769-P [17]),AUC of dose-response viability curve (786-O [18]),AUC of dose-response viability curve (A498 [19]),AUC of dose-response viability curve (ACHN [20]),AUC of dose-response viability curve (CAKI-1 [21]),AUC of dose-response viability curve (SN12C [22]),AUC of dose-response viability curve (TK-10 [23]),AUC of dose-response viability curve (UO-31 [24])
Cc1cnc(Nc2ccc(OCCN3CCCC3)cc2)nc1Nc1cccc(S(=O)(=O)NC(C)(C)C)c1 + Cc1nc(Nc2ncc(C(=O)Nc3c(C)cccc3Cl)s2)cc(N2CCN(CCO)CC2)n1 [dasatinib],1.34,0.492,3.5,0.136,0.376,0.949,0.357,0.913,0.0211,0.0103,0.0831,0.00238,0.00319,0.00825,0.00313,0.00873,2.06,1.73,3.11,1.25,1.66,1.97,1.82,3.1
Cc1cccc(-c2nc(C(C)(C)C)[nH]c2-c2ccc3nccnc3c2)n1 + Cc1nc(Nc2ncc(C(=O)Nc3c(C)cccc3Cl)s2)cc(N2CCN(CCO)CC2)n1 [dasatinib],7.81,> 10,8.41,> 10,7.37,3.77,> 10,> 10,0.476,0.517,0.411,0.559,0.486,0.317,0.61,0.824,2.34,2.16,3.7,2.06,2.29,2.18,2.51,4.8
Cc1[nH]c(/C=C2/C(=O)Nc3ccc(S(=O)(=O)N(C)c4cccc(Cl)c4)cc32)c(C)c1C(=O)N1CCN(C)CC1 + Cc1nc(Nc2ncc(C(=O)Nc3c(C)cccc3Cl)s2)cc(N2CCN(CCO)CC2)n1 [dasatinib],5.76,3.95,> 10,0.022,3.07,6.07,> 10,9.29,0.366,0.279,0.605,0.209,0.173,0.443,0.719,0.448,2.35,2.29,3.28,1.62,2.23,2.43,2.82,3.25
CC(C)(C)c1cnc(CSc2cnc(NC(=O)C3CCNCC3)s2)o1 + Cc1nc(Nc2ncc(C(=O)Nc3c(C)cccc3Cl)s2)cc(N2CCN(CCO)CC2)n1 [dasatinib],1.19,0.0558,0.129,0.157,0.131,0.134,0.476,0.429,0.0223,0.00565,0.00993,0.00387,0.034,0.0108,0.189,0.013,2.04,1.26,1.6,1.26,1.59,1.34,2.02,2.06
CNC(=O)Nc1ccc(-c2nc(N3CC4CCC(C3)O4)c3cnn(C4CCC5(CC4)OCCO5)c3n2)cc1 + Cc1nc(Nc2ncc(C(=O)Nc3c(C)cccc3Cl)s2)cc(N2CCN(CCO)CC2)n1 [dasatinib],0.0366,0.0107,0.121,0.00964,0.0167,0.0323,0.0325,0.0388,0.0698,0.00307,0.0731,0.0427,0.0306,0.116,0.0572,0.00565,1.16,0.872,1.64,0.872,0.907,1.24,1.19,1.2
Nc1nc(N)c2nc(-c3cccc(O)c3)cnc2n1 + Cc1nc(Nc2ncc(C(=O)Nc3c(C)cccc3Cl)s2)cc(N2CCN(CCO)CC2)n1 [dasatinib],> 10,0.22,4.14,0.285,1.76,1.41,3,2.96,0.647,0.0115,0.222,0.16,0.0946,0.183,0.269,0.0458,2.54,1.84,2.98,1.67,2.17,2.15,2.4,3.5
Cn1cc(C2=C(c3ccc(Cl)cc3Cl)C(=O)NC2=O)c2ccccc21 + Cc1nc(Nc2ncc(C(=O)Nc3c(C)cccc3Cl)s2)cc(N2CCN(CCO)CC2)n1 [dasatinib],5.29,> 10,> 10,> 10,> 10,> 10,> 10,6.21,0.288,0.587,0.929,0.548,0.562,0.642,0.532,0.191,2.36,2.55,3.8,2.2,0.956,2.53,2.74,3.15
Nc1ccc(C(=O)Nc2cccc(-c3nc(N4CCOCC4)c4oc5ncccc5c4n3)c2)cn1 + Cc1nc(Nc2ncc(C(=O)Nc3c(C)cccc3Cl)s2)cc(N2CCN(CCO)CC2)n1 [dasatinib],0.85,0.476,6.74,0.361,0.256,2.59,0.973,1.51,0.0371,0.00383,0.283,0.152,0.0783,0.345,0.0664,0.0122,1.99,1.81,3.03,1.68,1.61,2.16,2.16,3.17
O=C1c2ccccc2-c2n[nH]c3cccc1c23 + Cc1nc(Nc2ncc(C(=O)Nc3c(C)cccc3Cl)s2)cc(N2CCN(CCO)CC2)n1 [dasatinib],> 10,5.35,> 10,6.75,2.88,> 10,6.49,> 10,0.558,0.351,0.693,0.261,0.106,0.629,0.407,0.529,2.38,2.31,3.27,2.22,2.12,2.5,2.45,3.27
CS(=O)c1ccc(-c2nc(-c3ccc(F)cc3)c(-c3ccncc3)[nH]2)cc1 (stereo unspecified) + Cc1nc(Nc2ncc(C(=O)Nc3c(C)cccc3Cl)s2)cc(N2CCN(CCO)CC2)n1 [dasatinib],> 10,> 10,> 10,0.0157,> 10,> 10,> 10,> 10,0.593,0.746,0.893,0.434,0.516,0.716,0.655,0.962,2.31,2.73,3.76,1.82,2.3,2.65,2.45,3.73
CN(C)CCOc1ccc(-c2nc(-c3ccncc3)c(-c3ccc4c(c3)CC/C4=N/O)[nH]2)cc1 + Cc1nc(Nc2ncc(C(=O)Nc3c(C)cccc3Cl)s2)cc(N2CCN(CCO)CC2)n1 [dasatinib],3.46,3.72,3.76,2.48,3.9,> 10,9.95,8.34,0.0915,0.0096,0.0493,0.0859,0.0583,0.476,0.497,0.0511,2.3,2.6,3.54,2.29,2.33,2.57,3.03,3.9
COc1cc2c(Nc3ccc(NC(=O)c4ccccc4)cc3)ncnc2cc1OCCCN1CCOCC1 + Cc1nc(Nc2ncc(C(=O)Nc3c(C)cccc3Cl)s2)cc(N2CCN(CCO)CC2)n1 [dasatinib],2.91,1.21,9.27,0.00424,0.385,> 10,4.12,5.77,0.24,0.0181,0.283,0.095,0.0572,0.383,0.191,0.0966,2.17,2.13,3.33,1.54,1.76,2.43,2.35,3.27
C[C@@H](N)[C@H]1CC[C@H](C(=O)Nc2ccncc2)CC1.Cl.Cl + Cc1nc(Nc2ncc(C(=O)Nc3c(C)cccc3Cl)s2)cc(N2CCN(CCO)CC2)n1 [dasatinib],> 10,> 10,> 10,> 10,> 10,> 10,> 10,> 10,0.588,0.699,0.877,0.673,0.584,0.657,0.754,0.697,2.34,2.82,3.4,2.61,2.31,2.5,2.98,3.41
Cc1nc(NC(=O)N2CCC[C@H]2C(N)=O)sc1-c1csc(C(C)(C)C)n1 [A66] + Cc1nc(Nc2ncc(C(=O)Nc3c(C)cccc3Cl)s2)cc(N2CCN(CCO)CC2)n1 [dasatinib],> 10,0.323,> 10,1.13,> 10,> 10,> 10,> 10,0.548,0.352,0.784,0.429,0.539,0.527,0.561,0.761,2.43,1.88,3.64,2.1,2.31,2.33,2.49,3.38
